Laboratory results as given in article PMC11859264, “Discovery of a Novel Multitarget Analgesic Through an In Vivo-Guided Approach” (Pharmaceuticals, 2025).

Tests used:
[1] = test system: spinal nerve ligation (SNL) model; assay: Spinal nerve ligation (SNL) neuropathic pain model, von Frey paw withdrawal threshold; format: in vivo; conditions: SNL rats; for maximum possible effect (MPE), withdrawal threshold: 3 h after administration
Source text: The SNL model, also known as the Chung model, is a widely used animal model for studying neuropathic pain, a chronic pain condition resulting from nervous system damage. This model replicates human neuropathic pain, which can stem from nerve injuries due to conditions like diabetes, shingles, or spinal cord injury. In the SNL model, the L5 or L6 spinal nerve is surgically ligated to induce nerve injury, leading to the development of long-lasting neuropathic pain symptoms in the animal. Following the nerve injury, animals display pain-related behaviors that mirror those seen in human neuropathic pain conditions, such as allodynia and hyperalgesia. Behavioral assessments conducted 14 days after surgery evaluate the animal’s sensitivity to mechanical stimuli using Von Frey filaments to quantify pain responses and measure mechanical allodynia.
In this experiment, compound 29 was administered intraperitoneally at two different doses, 50 and 100 mg/kg, and its analgesic effects were assessed by measuring the 50% withdrawal threshold at multiple time points (1, 3, and 5 h post-administration) (Figure 3A). […]
Spinal nerve ligation (SNL) was performed following the method described by Kim and Chung. […] Following the surgery, the rats were returned to their cages and monitored during recovery.
Behavioral signs indicative of neuropathic pain (mechanical allodynia) were assessed in all rats for two weeks postoperatively. The paw withdrawal threshold (PWT) was measured using von Frey filaments (Stoelting, Wood Dale, IL, USA) and the up–down method. […] A brisk withdrawal or paw flinching was recorded as a positive response. […]
Figure 3 Antinociceptive effect of compound 29 on mechanical allodynia in SNL model rats. (A) The mechanical allodynia was induced by spinal nerve ligation and evaluated by measuring paw withdrawal thresholds in response to von Frey filament stimuli. […] The MPE was calculated using the following formula: MPE (%) = [(post-treated value − pre-treatment threshold) × 100]/(maximum possible threshold − pre-treatment threshold). Data are expressed as mean ± SEM. […]

[2] = biological target: T1, Transporter, Serotonin (SERT) (Homo sapiens, UniProt P31645); assay: Radioligand binding, [3H] Paroxetine, Eurofins
T1 construct: host or cells: HEK-293 cells
T1 sequence (P31645 whole entry): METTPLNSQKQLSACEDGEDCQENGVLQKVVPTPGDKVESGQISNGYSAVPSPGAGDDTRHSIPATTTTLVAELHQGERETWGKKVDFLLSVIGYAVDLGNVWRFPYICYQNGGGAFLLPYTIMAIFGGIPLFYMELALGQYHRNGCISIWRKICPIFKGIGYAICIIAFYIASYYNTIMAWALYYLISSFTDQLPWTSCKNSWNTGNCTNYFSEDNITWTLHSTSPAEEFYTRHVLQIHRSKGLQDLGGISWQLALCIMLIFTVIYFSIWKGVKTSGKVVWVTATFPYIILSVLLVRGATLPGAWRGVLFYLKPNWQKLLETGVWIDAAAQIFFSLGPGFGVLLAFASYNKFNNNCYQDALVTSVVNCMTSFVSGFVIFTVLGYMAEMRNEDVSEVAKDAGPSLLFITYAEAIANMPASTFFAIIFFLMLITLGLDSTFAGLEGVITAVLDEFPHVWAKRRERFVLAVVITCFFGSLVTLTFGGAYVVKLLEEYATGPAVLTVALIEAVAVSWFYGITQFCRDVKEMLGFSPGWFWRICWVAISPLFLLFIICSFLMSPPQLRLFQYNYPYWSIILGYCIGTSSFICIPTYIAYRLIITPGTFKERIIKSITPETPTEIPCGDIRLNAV

Dopamine D2L = biological target: T2, Dopamine D2L (Homo sapiens, UniProt P14416); assay: Radioligand binding, [3H] Spiperone, Eurofins
T2 construct: host or cells: CHO cells
T2 sequence (P14416 whole entry): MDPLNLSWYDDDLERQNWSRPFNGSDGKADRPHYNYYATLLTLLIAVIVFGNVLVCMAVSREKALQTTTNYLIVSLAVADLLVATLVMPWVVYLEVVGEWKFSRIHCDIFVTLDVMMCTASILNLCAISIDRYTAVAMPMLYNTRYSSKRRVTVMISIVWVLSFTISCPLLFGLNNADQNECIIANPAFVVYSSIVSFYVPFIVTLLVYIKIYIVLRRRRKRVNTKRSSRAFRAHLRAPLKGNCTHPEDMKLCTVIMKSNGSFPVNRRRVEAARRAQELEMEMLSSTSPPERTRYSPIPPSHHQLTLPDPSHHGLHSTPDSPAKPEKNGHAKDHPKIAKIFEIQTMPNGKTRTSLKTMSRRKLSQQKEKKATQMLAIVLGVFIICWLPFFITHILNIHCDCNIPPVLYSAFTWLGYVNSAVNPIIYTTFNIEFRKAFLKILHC

[3] = Metabolic stability assay in liver microsomes; format: in vitro ADME; conditions: 30 min
Protocol: In the in vitro metabolic stability study, the stability of compound 29 was evaluated using liver microsomes derived from both mouse and human sources. The primary objectives of this study were to determine the metabolic clearance rate of compound 29 over a defined time period, enabling an assessment of its intrinsic clearance. Microsomal incubations were performed, and the percentage of intact compound remaining was quantified at specific time points. […] The remaining substrate was quantified using the Nexera XR system (Shimadzu, Japan) and TSQ Vantage mass spectrometer (Thermo, Waltham, MA, USA). […] Metabolites were analyzed using the Multiple Reaction Monitoring (MRM) quantification mode in the Xcalibur software (version 4.4). The experiment was performed in duplicate with variability within 15%. Results were calculated as % remaining by comparing the test compound quantified after a 30 min reaction to the initial value at 0 min.

Cytotoxicity assay (MTT) = format: cell-based; conditions: mouse, HT-22 hippocampal neuronal cells, HT-22 cells, read-out: cell viability relative to the untreated control group
Protocol: In the in vitro toxicity study, we initially evaluated the cytotoxic potential of compound 29 using a hippocampal neuronal cell line (HT-22), a commonly used model for assessing neurotoxicity. Cell viability was determined after exposure to compound 29 at a concentration of 10 μM.
HT-22 (mouse hippocampal cells) were cultured in Dulbecco’s Modified Eagle’s Medium (DMEM, GIBCO) supplemented with 10% (v/v) fetal bovine serum and antibiotics (100 µg/mL penicillin/streptomycin mix) in a humidified atmosphere at 37 °C with 5% CO2. A total of 5000 HT-22 cells per well were seeded into a clear 96-well plate one day prior to the assay. On the day of the experiment, the medium was removed, and the cells were treated with 25 µL of each compound at a concentration of 10 µM. The plates were incubated at 37 °C for 18 h. Subsequently, 15 µL of 3-[4,5-dimethylthiazol-2-yl]-2,5-diphenyltetrazolium bromide (MTT) solution (5 mg/mL) was added to each well, and the plates were incubated for an additional 3 h. The resulting formazan crystals were dissolved in dimethyl sulfoxide (DMSO), and the absorbance at 570 nm was measured using a microplate reader (Sunrise, TECAN). Optical density (OD) values from each well were normalized by subtracting the vehicle control, and cell viability was calculated by considering the signal from the vehicle control as 100%.

CYP2C9 = CYP2C9 (Homo sapiens, UniProt P11712); assay: in vitro; conditions: microsomes, pH 7.4, CYP2C9 % of inhibition
Chain of CYP2C9 (P11712 whole entry): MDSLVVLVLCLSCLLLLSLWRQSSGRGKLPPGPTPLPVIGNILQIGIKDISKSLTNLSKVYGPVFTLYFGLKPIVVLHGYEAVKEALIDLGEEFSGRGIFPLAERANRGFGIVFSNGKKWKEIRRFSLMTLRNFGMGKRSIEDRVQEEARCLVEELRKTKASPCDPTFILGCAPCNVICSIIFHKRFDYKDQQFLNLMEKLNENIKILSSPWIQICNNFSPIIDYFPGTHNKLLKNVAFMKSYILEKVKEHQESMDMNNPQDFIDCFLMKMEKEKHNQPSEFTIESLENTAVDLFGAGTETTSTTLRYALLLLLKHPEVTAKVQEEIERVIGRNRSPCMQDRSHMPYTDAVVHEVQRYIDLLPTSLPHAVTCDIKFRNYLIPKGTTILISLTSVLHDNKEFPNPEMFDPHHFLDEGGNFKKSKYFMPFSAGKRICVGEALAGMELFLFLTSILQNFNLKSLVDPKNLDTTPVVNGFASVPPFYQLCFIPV

hERG = hERG (Homo sapiens, UniProt Q12809); assay: biochemical
Chain of hERG (Q12809 whole entry): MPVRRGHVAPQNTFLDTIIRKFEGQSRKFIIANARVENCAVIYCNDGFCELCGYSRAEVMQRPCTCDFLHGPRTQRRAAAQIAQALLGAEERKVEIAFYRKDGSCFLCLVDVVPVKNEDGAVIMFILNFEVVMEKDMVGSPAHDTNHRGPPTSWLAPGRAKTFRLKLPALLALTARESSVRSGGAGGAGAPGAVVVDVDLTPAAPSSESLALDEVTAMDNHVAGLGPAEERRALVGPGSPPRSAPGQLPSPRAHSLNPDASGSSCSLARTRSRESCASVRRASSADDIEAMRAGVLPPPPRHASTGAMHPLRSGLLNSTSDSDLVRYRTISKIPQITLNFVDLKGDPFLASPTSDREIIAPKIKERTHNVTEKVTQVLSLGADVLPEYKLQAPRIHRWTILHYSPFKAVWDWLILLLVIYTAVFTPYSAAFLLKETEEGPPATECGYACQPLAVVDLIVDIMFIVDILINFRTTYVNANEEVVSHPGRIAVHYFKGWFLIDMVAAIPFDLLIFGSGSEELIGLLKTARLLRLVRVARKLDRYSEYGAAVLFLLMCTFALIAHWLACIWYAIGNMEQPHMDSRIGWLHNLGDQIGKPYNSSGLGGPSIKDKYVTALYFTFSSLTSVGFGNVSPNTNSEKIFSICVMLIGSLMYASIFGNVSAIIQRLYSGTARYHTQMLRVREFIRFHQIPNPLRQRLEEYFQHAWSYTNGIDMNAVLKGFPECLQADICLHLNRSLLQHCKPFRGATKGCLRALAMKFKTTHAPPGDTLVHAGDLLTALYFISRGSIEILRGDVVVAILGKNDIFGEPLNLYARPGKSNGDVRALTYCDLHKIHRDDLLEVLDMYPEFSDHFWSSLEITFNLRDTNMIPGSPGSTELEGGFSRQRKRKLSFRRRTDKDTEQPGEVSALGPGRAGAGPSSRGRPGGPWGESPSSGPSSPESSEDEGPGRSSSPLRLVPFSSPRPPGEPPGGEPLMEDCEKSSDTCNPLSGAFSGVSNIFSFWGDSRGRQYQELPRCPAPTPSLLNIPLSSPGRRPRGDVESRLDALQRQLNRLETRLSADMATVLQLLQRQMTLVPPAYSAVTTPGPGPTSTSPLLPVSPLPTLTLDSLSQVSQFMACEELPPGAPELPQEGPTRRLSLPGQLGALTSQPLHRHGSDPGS

Structure (SMILES): N#Cc1ccc2[nH]cc(C(=O)NCCN3CCN(c4ccc5ccccc5n4)CC3)c2c1 [Compound 29, 5-Cyano-N-(2-(4-(quinolin-2-yl)piperazin-1-yl)ethyl)-1H-indole-3-carboxamide]
- maximum possible effect (MPE), withdrawal threshold ([1]; 50 mg/kg intraperitoneal): 24%
- maximum possible effect (MPE), withdrawal threshold ([1]; 100 mg/kg intraperitoneal): 45%
- time of most pronounced analgesic effect (Tmax) ([1]; 50 and 100 mg/kg intraperitoneal): 3 h
- nH (Hill coefficient) ([2]; SERT): 0.84
- Ki ([2]; SERT, Cheng and Prusoff): 0.13 µM
- IC50 ([2]; SERT, human recombinant HEK-293 cells): 0.78 µM
- times more potent at SERT compared to fluoxetine ([2]; ratio of Ki values): 13
- nH (Hill coefficient) (Dopamine D2L; Dopamine D2L): 0.86
- Ki (Dopamine D2L; Dopamine D2L, Cheng and Prusoff): 1.85 µM
- IC50 (Dopamine D2L; Dopamine D2L, human recombinant CHO cells): 5.54 µM
- times the activity of reference compound spiperone (Dopamine D2L; ratio of Ki values): 0.02
- remaining at 0.5 h, 1 µM ([3]; pH 7.4, human liver microsomes): 55.6%
- remaining at 0.5 h, 1 µM ([3]; pH 7.4, mouse liver microsomes): 51.2%
- viability at 18 h, 10 µM (Cytotoxicity assay (MTT)): > 100%
- inhibition at 15 min, 10 µM (CYP2C9): < 50%
- IC50 (hERG): ~10 µM
